In ChEMBL document CHEMBL5154762, “Design, synthesis, and tumor drug resistance reversal activity of novel hederagenin derivatives modified by nitrogen-containing heterocycles” (Eur J Med Chem, 2022):
Activity calls are given as the source filed them. No cut-off for these calls is given here.

Columns and labels:
[1] = Cytotoxicity against human KBV cells assessed as decrease in cell survival rate at 10 uM measured after 72 hrs in presence of paclitaxel by MTT assay; assay type: functional; settings: read-out: Survival
[2] = Cytotoxicity against human KBV cells assessed as decrease in cell survival rate at 10 uM measured after 72 hrs by MTT assay; assay type: functional; settings: read-out: Survival
[3] = target: ATP-dependent translocase ABCB1 (Homo sapiens, UniProt P08183); assay: Inhibition of P-glycoprotein mediated Rhodamine-123 efflux in human KBV cells assessed as increase in rhodamine-123 accumulation incubated for 3 hrs in presence of rhodamine-123 by flow cytometry analysis; assay type: cell-based; settings: DDE = dose-dependent effect
KBV [4] = assay: Induction of apoptosis in human KBV cells at 10 uM measured after 24 hrs in presence of paclitaxel by flow cytometry analysis; assay type: functional, cell-based
KBV [5] = assay: Induction of cell cycle arrest in human KBV cells assessed as accumulation at G2/M phase measured after 24 hrs by propidium iodide/RNase staining based flow cytometry analysis; assay type: functional
[6] = Induction of cell cycle arrest in human KBV cells assessed as accumulation at sub-G0 phase measured after 24 hrs by propidium iodide/RNase staining based flow cytometry analysis (reference value: 6.18%); assay type: functional
[7] = Antitumor activity against human KBV cells xenografted in BALB/c mouse assessed as tumor suppression rate at 10 mg/kg, ip qd administered in presence of paclitaxel; assay type: functional
[8] = Toxicity in BALB/c mouse xenografted with human KBV cells assessed as change in body weight at 10 mg/kg, ip qd administered presence of paclitaxel; assay type: organism-based; settings: in vivo
[9] = Antitumor activity against human KBV cells xenografted in BALB/c mouse assessed as tumor suppression rate at 30 mg/kg administered once every three days; assay type: functional
[10] = Cytotoxicity against human KBV cells assessed as decrease in cell survival rate at 100 nM measured after 72 hrs by MTT assay; assay type: functional; settings: read-out: Survival

ATP-dependent translocase ABCB1, sequence (P08183 whole entry): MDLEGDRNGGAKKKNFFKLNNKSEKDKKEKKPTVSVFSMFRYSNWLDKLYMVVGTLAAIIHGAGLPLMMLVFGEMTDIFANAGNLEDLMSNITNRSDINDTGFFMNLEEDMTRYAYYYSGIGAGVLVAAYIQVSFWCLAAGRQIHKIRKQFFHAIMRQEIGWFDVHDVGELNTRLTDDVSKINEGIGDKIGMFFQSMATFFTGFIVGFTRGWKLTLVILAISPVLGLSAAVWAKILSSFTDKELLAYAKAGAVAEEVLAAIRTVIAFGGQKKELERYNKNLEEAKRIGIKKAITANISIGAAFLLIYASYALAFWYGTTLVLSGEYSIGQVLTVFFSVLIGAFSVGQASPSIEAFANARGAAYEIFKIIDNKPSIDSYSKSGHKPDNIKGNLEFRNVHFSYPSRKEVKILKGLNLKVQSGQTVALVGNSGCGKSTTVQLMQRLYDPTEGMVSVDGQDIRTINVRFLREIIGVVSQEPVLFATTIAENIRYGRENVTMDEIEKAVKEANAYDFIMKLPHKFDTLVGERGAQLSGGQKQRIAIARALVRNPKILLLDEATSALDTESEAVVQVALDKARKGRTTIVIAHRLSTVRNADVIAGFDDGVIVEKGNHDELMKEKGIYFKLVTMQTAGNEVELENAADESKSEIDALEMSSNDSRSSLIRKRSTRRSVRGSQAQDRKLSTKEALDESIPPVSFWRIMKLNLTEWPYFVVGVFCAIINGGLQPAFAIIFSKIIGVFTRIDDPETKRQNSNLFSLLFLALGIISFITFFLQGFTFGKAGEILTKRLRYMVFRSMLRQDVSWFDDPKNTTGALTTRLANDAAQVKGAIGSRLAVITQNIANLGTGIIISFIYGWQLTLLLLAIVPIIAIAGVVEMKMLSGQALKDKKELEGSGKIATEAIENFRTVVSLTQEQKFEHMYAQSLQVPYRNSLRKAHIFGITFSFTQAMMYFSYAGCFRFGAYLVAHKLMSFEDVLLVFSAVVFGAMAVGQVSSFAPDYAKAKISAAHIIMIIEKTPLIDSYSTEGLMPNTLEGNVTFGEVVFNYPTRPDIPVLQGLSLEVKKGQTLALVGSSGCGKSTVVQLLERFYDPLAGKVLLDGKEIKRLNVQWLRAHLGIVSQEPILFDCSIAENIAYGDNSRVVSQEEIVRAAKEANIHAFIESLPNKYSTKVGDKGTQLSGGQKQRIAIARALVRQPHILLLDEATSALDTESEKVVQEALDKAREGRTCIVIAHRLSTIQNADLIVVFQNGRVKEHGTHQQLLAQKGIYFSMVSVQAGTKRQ

Structure (SMILES)	viability at 10 µM [1]	viability at 10 µM [2]	other results
CC1(C)CC[C@]2(C(=O)OCc3ccccc3)CC[C@]3(C)C(=CC[C@@H]4[C@@]5(C)Cc6nccnc6[C@@](C)(CO)[C@@H]5CC[C@]43C)[C@@H]2C1	25.3%	–	–
CCOC(=O)c1noc2c1C[C@@]1(C)[C@@H](CC[C@]3(C)[C@@H]1CC=C1[C@@H]4CC(C)(C)CC[C@]4(C(=O)O)CC[C@]13C)[C@]2(C)CO	92.1%	93.9%	–
CC1(C)CC[C@]2(C(=O)OCc3ccccc3)CC[C@]3(C)C(=CC[C@@H]4[C@@]5(C)Cc6cnoc6[C@@](C)(COC(=O)CCC(=O)N6CCOCC6)[C@@H]5CC[C@]43C)[C@@H]2C1	34.1%	89.6%	–
CC1(C)CC[C@]2(C(=O)OCc3ccccc3)CC[C@]3(C)C(=CC[C@@H]4[C@@]5(C)Cc6cnoc6[C@@](C)(COC(=O)CCC(=O)O)[C@@H]5CC[C@]43C)[C@@H]2C1	16.6%	34%	–
CN1CCN(C(=O)CCC(=O)OC[C@]2(C)c3oncc3C[C@@]3(C)[C@H]2CC[C@]2(C)[C@@H]3CC=C3[C@@H]4CC(C)(C)CC[C@]4(C(=O)OCc4ccccc4)CC[C@]32C)CC1	32.5%	79.7%	–
CC1(C)CC[C@]2(C(=O)O)CC[C@]3(C)C(=CC[C@@H]4[C@@]5(C)CC[C@H](O)[C@@](C)(CO)[C@@H]5CC[C@]43C)[C@@H]2C1 [HEDERAGENIN]	149%	–	–
CC1(C)CC[C@]2(C(=O)OCc3cccc(Br)c3)CC[C@]3(C)C(=CC[C@@H]4[C@@]5(C)Cc6nccnc6[C@@](C)(CO)[C@@H]5CC[C@]43C)[C@@H]2C1	19.6%	39.8%	–
CC1(C)CC[C@]2(C(=O)OCc3ccc([N+](=O)[O-])cc3)CC[C@]3(C)C(=CC[C@@H]4[C@@]5(C)Cc6nccnc6[C@@](C)(CO)[C@@H]5CC[C@]43C)[C@@H]2C1	29.6%	91.9%	–
CC1(C)CC[C@]2(C(=O)OCc3cccc(F)c3)CC[C@]3(C)C(=CC[C@@H]4[C@@]5(C)Cc6nccnc6[C@@](C)(CO)[C@@H]5CC[C@]43C)[C@@H]2C1	35%	110%	–
CC1(C)CC[C@]2(C(=O)OCc3ccccc3)CC[C@]3(C)C(=CC[C@@H]4[C@@]5(C)Cc6cnoc6[C@@](C)(COC(=O)CCC(=O)n6cccn6)[C@@H]5CC[C@]43C)[C@@H]2C1	63.1%	69.6%	–
CCOC(=O)c1noc2c1C[C@@]1(C)[C@@H](CC[C@]3(C)[C@@H]1CC=C1[C@@H]4CC(C)(C)CC[C@]4(C(=O)OCc4ccccc4)CC[C@]13C)[C@]2(C)CO	94.7%	102%	–
CC1(C)CC[C@]2(C(=O)OCc3ccc(Br)cc3)CC[C@]3(C)C(=CC[C@@H]4[C@@]5(C)Cc6nccnc6[C@@](C)(CO)[C@@H]5CC[C@]43C)[C@@H]2C1	34.2%	109%	–
CCN1CCN(C(=O)CCC(=O)OC[C@]2(C)c3oncc3C[C@@]3(C)[C@H]2CC[C@]2(C)[C@@H]3CC=C3[C@@H]4CC(C)(C)CC[C@]4(C(=O)OCc4ccccc4)CC[C@]32C)CC1	26.5%	67.5%	inhibition (INH) [3]: Dde; Activity (KBV [4]): Active; Activity (KBV [5]): Active; Activity [6]: 14.8%; Activity [7]: 56.24%; Activity [8]: Non-Toxic
CC1(C)CC[C@]2(C(=O)OCc3ccccc3F)CC[C@]3(C)C(=CC[C@@H]4[C@@]5(C)Cc6nccnc6[C@@](C)(CO)[C@@H]5CC[C@]43C)[C@@H]2C1	26.7%	107%	–
CC1(C)CC[C@]2(C(=O)OCc3ccccc3[N+](=O)[O-])CC[C@]3(C)C(=CC[C@@H]4[C@@]5(C)Cc6nccnc6[C@@](C)(CO)[C@@H]5CC[C@]43C)[C@@H]2C1	27.1%	103%	–
Cc1cccc(COC(=O)[C@]23CCC(C)(C)C[C@H]2C2=CC[C@@H]4[C@@]5(C)Cc6nccnc6[C@@](C)(CO)[C@@H]5CC[C@@]4(C)[C@]2(C)CC3)c1	32.8%	124%	–
CC1(C)CC[C@]2(C(=O)OCc3cccc(Cl)c3)CC[C@]3(C)C(=CC[C@@H]4[C@@]5(C)Cc6nccnc6[C@@](C)(CO)[C@@H]5CC[C@]43C)[C@@H]2C1	30.8%	92%	–
CC1(C)CC[C@]2(C(=O)OCc3ccc(F)cc3)CC[C@]3(C)C(=CC[C@@H]4[C@@]5(C)Cc6nccnc6[C@@](C)(CO)[C@@H]5CC[C@]43C)[C@@H]2C1	83.3%	94.9%	–
Cc1ccccc1COC(=O)[C@]12CCC(C)(C)C[C@H]1C1=CC[C@@H]3[C@@]4(C)Cc5nccnc5[C@@](C)(CO)[C@@H]4CC[C@@]3(C)[C@]1(C)CC2	27.5%	99.7%	–
CC1(C)CC[C@]2(C(=O)OCc3ccccc3)CC[C@]3(C)C(=CC[C@@H]4[C@@]5(C)Cc6cnoc6[C@@](C)(COC(=O)CCC(=O)N6CCCCC6)[C@@H]5CC[C@]43C)[C@@H]2C1	79.2%	80.5%	–
CC1(C)CC[C@]2(C(=O)OCc3ccccc3)CC[C@]3(C)C(=CC[C@@H]4[C@@]5(C)Cc6cnoc6[C@@](C)(COC(=O)CCC(=O)n6ccnc6)[C@@H]5CC[C@]43C)[C@@H]2C1	48.6%	96.9%	–
CC1(C)CC[C@]2(C(=O)OCc3ccccc3)CC[C@]3(C)C(=CC[C@@H]4[C@@]5(C)Cc6cnoc6[C@@](C)(CO)[C@@H]5CC[C@]43C)[C@@H]2C1	33.7%	140%	–
CC(=O)O[C@H]1C(=O)[C@@]2(C)[C@H]([C@H](OC(=O)c3ccccc3)[C@]3(O)C[C@H](OC(=O)[C@H](O)[C@@H](NC(=O)c4ccccc4)c4ccccc4)C(C)=C1C3(C)C)[C@]1(OC(C)=O)CO[C@@H]1C[C@@H]2O [PACLITAXEL]	–	–	Activity [9]: 22.63%; viability at 0.1 µM [10]: 98.7%
CC1(C)CC[C@]2(C(=O)OCc3ccccc3)CC[C@]3(C)C(=CC[C@@H]4[C@@]5(C)Cc6cnoc6[C@@](C)(COC(=O)CCC(=O)N6CCCC6)[C@@H]5CC[C@]43C)[C@@H]2C1	33.3%	99.4%	–
